Assay results as given in patent publication US9353089B2, “Compositions and methods for the treatment of malaria” (Saint Louis University, priority 2013, dated 2016).
pIC50: −log10 of the molar value. Read-outs that look alike come from different tables or passages of the source. Non-standard residues stand in square brackets, D forms with d. Residues, ends and D or L forms follow the SMILES beside them. *: point of attachment. Sta = CC(C)C[C@H](N)[C@@H](O)CC(=O)O; Isovaleryl = CC(C)CC(=O)*

Tests used:
[1] = tested on: Plasmodium chabaudi ASS and ASCQ strains; experiment: In vivo antimalarial efficacy 4-day suppressive test; conditions: NIH mice, 4.5 mpk orally once daily for four days, Day 4 postinoculation
Procedure: Briefly, NIH mice (n=8 per group) were inoculated i.p. with 2×10^7 parasitized (Plasmodium chabaudi ASS or ASCQ) red blood cells. […] Groups (n=6) including a vehicle control and chloroquine (CQ) as a reference drug were included. Parasitemia levels were determined on the day following the last treatment (Day 4).

[2] = target: recombinant human Cathepsin E (Homo sapiens (Human), UniProt P14091); experiment: Cathepsin E enzyme inhibition FRET assay; format: biochemical; conditions: Table 8; read-out: CatE IC50
Chain of recombinant human Cathepsin E (P14091 54-396): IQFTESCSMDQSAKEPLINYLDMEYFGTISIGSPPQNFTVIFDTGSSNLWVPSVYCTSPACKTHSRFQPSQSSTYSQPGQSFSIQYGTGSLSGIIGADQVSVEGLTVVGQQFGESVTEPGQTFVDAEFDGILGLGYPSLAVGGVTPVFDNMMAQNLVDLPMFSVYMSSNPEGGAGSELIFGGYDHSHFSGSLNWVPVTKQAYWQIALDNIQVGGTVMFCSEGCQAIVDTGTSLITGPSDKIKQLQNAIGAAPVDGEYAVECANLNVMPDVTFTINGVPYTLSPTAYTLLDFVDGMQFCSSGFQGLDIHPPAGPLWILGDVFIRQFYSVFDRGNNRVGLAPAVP
Procedure: (§1) The enzymatic inhibition activity assays were determined using the fluorescence resonance energy transfer (FRET) assay. The assays were performed in a 384-well plate format. […] The concentration of Cathepsin D was 20 ng/μL, and 1 ng/μL of Cathepsin E was used. CatD and CatE were activated by incubation in assay buffer (0.1 M NaOAc, 0.2 M NaCl, pH 3.5) at room temperature for 30 min. Subsequently, the rhBACE-1 substrate (R&D Systems, catalog# ES004), the Cathepsin D and Cathepsin E substrate (R&D Systems, Catalog # ES001) were added accordingly to final concentration 20 μM to initiate the reaction. After 60 min incubation at room temperature, the time-resolved fluorescence at Ex/Em=360 nm/460 nm was measured on an EnVision multilabel plate reader (Perkin-Elmer). The analytical software, GraphPad Prism 5.0 (GraphPad Software, Inc., USA) was used to generate IC50 values via non-linear regression analysis, which are reported in Tables 8-13 below as BACE1 IC50 values.

[3] = target: Plasmepsin (PM-4; Plm IV) (Plasmodium falciparum (isolate 3D7), UniProt Q8IM16); experiment: Plasmepsin-4 enzyme inhibition assay; format: biochemical; conditions: Table 8
Chain of Plasmepsin (PM-4; Plm IV) (Q8IM16 122-449 limits assumed): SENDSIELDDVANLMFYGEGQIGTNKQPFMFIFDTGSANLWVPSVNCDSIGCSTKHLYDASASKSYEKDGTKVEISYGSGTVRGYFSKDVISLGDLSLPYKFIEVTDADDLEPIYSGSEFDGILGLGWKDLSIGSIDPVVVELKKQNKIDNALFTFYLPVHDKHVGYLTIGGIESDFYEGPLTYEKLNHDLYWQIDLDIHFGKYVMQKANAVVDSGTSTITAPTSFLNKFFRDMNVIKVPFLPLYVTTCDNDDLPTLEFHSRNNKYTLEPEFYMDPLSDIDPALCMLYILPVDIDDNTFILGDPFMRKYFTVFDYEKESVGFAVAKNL
Procedure: Plasmepsin-2 (PM-2; Plm II) and Plasmepsin (PM-4; Plm IV) expression and purification was performed following the published protocols (Istvan E S and Goldberg D E, 2005). The final purified protein was activated by diluting the protein to 0.3 mg/mL in activating buffer (0.1 M citrate pH 4.5, 0.1% Tween-20, 50 mM dithiothreitol) and incubated at room temperature for 40 min, then the activated enzyme was diluted in assay buffer (50 mM sodium acetate pH 4.7, 0.01% Tween-20). The enzymatic inhibition reaction was performed in 384 well plates with a total volume of 20 μl. 10 μl of diluted PM-2 or PM-4 enzyme was added to the 384-well plate except blank wells (blank wells add 10 μL of assay buffer) and 20 nL of serials of diluted 1000× compounds were added to the wells with 520 Echo® Liquid Handling System (Labcyte Inc.). 10 μL PM-2 peptide substrate (AnaSpec, Cat#, 62050) with assay buffer was then added to final concentration of 20 μM to start the reaction. After incubation the reaction at room temperature for 60 min, the fluorescence intensity at Ex/Em=360 nm/535 nm was measured using EnVision multilabel plate reader (Perkin-Elmer). The IC50 values were obtained using Graph Pad Prism 4 and are reported in Tables 8 and 9 below as PM-2 IC50 values.

[4] = target: Plasmepsin-2 (PM-2; Plm II) (Plasmodium falciparum (isolate HB3), UniProt P46925); experiment: Plasmepsin-2 enzyme inhibition assay; format: biochemical
Chain of Plasmepsin-2 (PM-2; Plm II) (P46925 125-453 limits assumed): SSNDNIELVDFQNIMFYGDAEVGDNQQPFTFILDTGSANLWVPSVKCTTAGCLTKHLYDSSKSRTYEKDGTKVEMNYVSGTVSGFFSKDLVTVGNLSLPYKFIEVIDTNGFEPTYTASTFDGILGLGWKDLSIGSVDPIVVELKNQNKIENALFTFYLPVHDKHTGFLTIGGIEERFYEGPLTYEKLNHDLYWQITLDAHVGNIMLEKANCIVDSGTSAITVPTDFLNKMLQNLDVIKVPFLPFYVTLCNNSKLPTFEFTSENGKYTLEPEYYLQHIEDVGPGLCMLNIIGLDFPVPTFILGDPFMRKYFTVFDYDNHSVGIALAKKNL
Summary of the method: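 Enzymes activated in pH 4.5 citrate/DTT buffer, then assayed in 50 mM sodium acetate pH 4.7, 0.01% Tween-20. Compounds added before fluorogenic peptide substrate (final 20 µM); 60 min at room temperature, fluorescence Ex/Em 360/535 nm, IC50 by curve fit.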

recombinant human BACE1 [5] = experiment: β-Secretase (BACE1) enzyme inhibition FRET assay; format: biochemical
Summary of the method: (§2)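 FRET cleavage by rhBACE1 with substrate at 20 μM final, 60 min at room temperature. Time-resolved fluorescence read at Ex/Em 360/460 nm. IC50 obtained by non-linear regression.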

recombinant human BACE1 [6] = target: recombinant human BACE1 (Homo sapiens, UniProt P56817); experiment: β-Secretase (BACE1) enzyme inhibition FRET assay; format: biochemical
Chain of recombinant human BACE1 (Homo sapiens, UniProt P56817) (P56817 46-501 limits assumed): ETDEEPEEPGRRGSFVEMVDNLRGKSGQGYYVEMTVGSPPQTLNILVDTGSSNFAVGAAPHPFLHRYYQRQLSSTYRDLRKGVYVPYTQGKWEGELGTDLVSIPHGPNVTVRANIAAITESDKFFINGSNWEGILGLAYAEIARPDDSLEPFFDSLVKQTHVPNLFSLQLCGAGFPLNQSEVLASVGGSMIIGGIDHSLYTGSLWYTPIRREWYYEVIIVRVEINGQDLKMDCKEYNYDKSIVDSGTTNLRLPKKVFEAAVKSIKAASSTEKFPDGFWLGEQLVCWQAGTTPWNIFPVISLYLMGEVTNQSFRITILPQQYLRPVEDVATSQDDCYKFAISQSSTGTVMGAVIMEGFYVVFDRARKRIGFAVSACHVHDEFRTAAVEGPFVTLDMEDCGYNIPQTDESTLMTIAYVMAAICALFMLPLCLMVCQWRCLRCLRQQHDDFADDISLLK
Summary of the method: as §2

[7] = tested on: Plasmodium falciparum 3D7 (CQ-sensitive); experiment: In vitro antimalarial assay (malaria SYBR Green I-based fluorescence, MSF), 3D7; format: cell-based
Summary of the method: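 Asynchronous P. falciparum 3D7 cultures (0.5% parasitemia, 2% hematocrit) were exposed to serially diluted compounds, in quadruplicate. Growth was then quantified by SYBR Green I fluorescence after adding lysis buffer containing 0.2 μL/mL dye.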

[8] = target: recombinant human Cathepsin D (Homo sapiens (Human), UniProt P07339); experiment: Cathepsin D enzyme inhibition FRET assay; format: biochemical
Chain of recombinant human Cathepsin D (P07339 65-412): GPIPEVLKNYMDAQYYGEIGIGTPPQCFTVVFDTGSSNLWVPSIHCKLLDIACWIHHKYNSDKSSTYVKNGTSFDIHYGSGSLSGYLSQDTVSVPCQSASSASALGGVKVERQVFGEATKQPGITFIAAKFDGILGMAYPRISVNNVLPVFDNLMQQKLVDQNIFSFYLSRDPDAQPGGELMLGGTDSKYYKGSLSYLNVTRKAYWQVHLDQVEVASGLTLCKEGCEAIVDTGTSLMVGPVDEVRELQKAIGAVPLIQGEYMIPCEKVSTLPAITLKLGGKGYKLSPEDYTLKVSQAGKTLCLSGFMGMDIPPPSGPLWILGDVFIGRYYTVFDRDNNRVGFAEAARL
Procedure: as §1

[9] = tested on: Plasmodium falciparum Dd2 (multi-drug resistant); experiment: In vitro antimalarial assay (malaria SYBR Green I-based fluorescence, MSF), Dd2; format: cell-based; conditions: DD2, read-out: Dd2 IC50 (μM)
Procedure: In vitro antimalarial activity was determined by a malaria SYBR Green I-based fluorescence (MSF) method described previously by Smilkstein et al. (2004, which is incorporated herein by reference) with slight modification (Winter, et al., 2006, which is incorporated herein by reference). Stock solutions of each test drug were prepared in DMSO at a concentration of 20 mM. The drug solutions were serially diluted with culture medium and distributed to asynchronous parasite cultures on 96-well plates in quadruplicate in a total volume of 100 μL to achieve 0.5% parasitemia with a 2% hematocrit in a total volume of 100 pt. The plates were then incubated for 72 h at 37° C. After incubation, 100 μL of lysis buffer with 0.2 μL/mL SYBR Green I was added to each well. The plates were incubated at 37° C. for an hour in the dark and then placed in a 96-well fluorescence plate reader (Spectramax Gemini-EM; Molecular Diagnostics) with excitation and emission wavelengths at 497 nm and 520 nm, respectively, for measurement of fluorescence.
Antimalarial potency of compounds was determined by this technique for both Plasmodium falciparum 3D7 (CQ-sensitive) and Dd2 (multi-drug resistant) strains.

Plasmepsin V (PM-V) = Plasmepsin V (PM-V) (Plasmodium falciparum (isolate 3D7), UniProt Q8I6Z5); conditions: known inhibitors, background; cited from earlier work
[10] = 3D7, read-out: 3D7 IC50 (μM), Table 13

Question: For `CCN(CC)CCCC(C)Nc1ccnc2cc(Cl)ccc12` (stereo not drawn) [CQ, chloroquine, reference compound], which “% Inhibition of parasitemia” value [1] is on record?
Answer: 99.99%

Question: With `N=C1NC(c2ccccc2)(c2cccc(-c3cccnc3)c2)C(=O)N1C1CCCCC1` (stereo not drawn) [Example 136, 3-cyclohexyl-2-imino-5-phenyl-5-[3-(pyridin-3-yl)-phenyl]imidazolidin-4-one] as the molecule, how does the pIC50 [2] read?
Answer: < 5.00

Question: And the pIC50 [3]?
Answer: 7.51

Question: What about the pIC50 ([4]; Table 8, read-out: PM-II IC50) of the same molecule?
Answer: 7.89

Question: What about the pIC50 ([4]; Table 12, read-out: PM-2 IC50) of the same molecule?
Answer: 7.89

Question: What about the pIC50 ([4]; Table 13, read-out: PM-2 IC50) of the same molecule?
Answer: 7.89

Question: What about the “selectivity for PM-II over BACE” value (recombinant human BACE1 [5]) of the same molecule?
Answer: > 1000 fold

Question: What about the “BACE1/PM2 Ratio” value (recombinant human BACE1 [5]; ratio of BACE1 IC50 to PM-2 IC50) of the same molecule?
Answer: 1392

Question: What about the pIC50 (recombinant human BACE1 [6]; Table 8, read-out: BACE IC50) of the same molecule?
Answer: 5.77

Question: And the pIC50 (recombinant human BACE1 [6]; Table 12, read-out: BACE1 IC50)?
Answer: 4.74

Question: And the pIC50 (recombinant human BACE1 [6]; Table 13, read-out: BACE1 IC50)?
Answer: 4.74

Question: And the IC50 ([7]; 3D7, read-out: 3D7 IC50 (μM), Table 12)?
Answer: 0.75 µM

Question: What about the IC50 [7, 10] of the same molecule?
Answer: 0.75 µM

Question: What about the IC50 ([7]; 3D7, read-out: Pf 3D7 IC50 (μM), Table 11) of the same molecule?
Answer: 0.75 µM

Question: What about the pIC50 ([7]; 3D7, read-out: Pf 3D7 IC50, Table 8) of the same molecule?
Answer: 6.12

Question: What about the “selectivity for PM-II over CatD” value [8] of the same molecule?
Answer: > 1000 fold

Question: What about the pIC50 ([8]; Table 8, read-out: CatD IC50) of the same molecule?
Answer: < 5.00

Question: With `COc1ccc(C2(c3ccc(OC)cc3)NC(=N)N(CC3CCCCC3)C2=O)cc1` [Example 221, 3-(cyclohexylmethyl)-2-imino-5,5-bis(4-methoxyphenyl)-imidazolidin-4-one] as the molecule, how does the pIC50 ([4]; Table 13, read-out: PM-2 IC50) read?
Answer: 8.62

Question: And the pIC50 (recombinant human BACE1 [6]; Table 13, read-out: BACE1 IC50)?
Answer: 5.22

Question: What about the IC50 [7, 10] of the same molecule?
Answer: 0.207 µM

Question: What about the IC50 ([7]; 3D7, read-out: Pf3D7 IC50 (μM), Table 10) of the same molecule?
Answer: 0.383 µM

Question: And the IC50 [9]?
Answer: 0.367 µM

Question: With `Cc1cccc(C)c1OCC(=O)N[C@@H](Cc1ccccc1)[C@@H](O)C[C@H](Cc1ccccc1)NC(=O)[C@H](C(C)C)N1CCCNC1=O` [lopinavir] as the molecule, how does the pIC50 (Plasmepsin V (PM-V)) read?
Answer: < 4.70

Question: With `CC(C)CC(=O)N[C@H](C(=O)N[C@H](C(=O)N[C@@H](CC(C)C)[C@@H](O)CC(=O)N[C@@H](C)C(=O)N[C@@H](CC(C)C)[C@@H](O)CC(=O)O)C(C)C)C(C)C` [pepstatin A] (Isovaleryl-VV[Sta]A[Sta]-OH) as the molecule, how does the pIC50 (Plasmepsin V (PM-V)) read?
Answer: < 4.70
